This is an account of results in patent US9353104B2, “Substituted pyridizinone derivatives as PDE10 inhibitors” (priority 2013, dated 2016).

pKi: −log10 of the molar value.

Sequence of human PDE10A2 (Q9Y233 267-1055): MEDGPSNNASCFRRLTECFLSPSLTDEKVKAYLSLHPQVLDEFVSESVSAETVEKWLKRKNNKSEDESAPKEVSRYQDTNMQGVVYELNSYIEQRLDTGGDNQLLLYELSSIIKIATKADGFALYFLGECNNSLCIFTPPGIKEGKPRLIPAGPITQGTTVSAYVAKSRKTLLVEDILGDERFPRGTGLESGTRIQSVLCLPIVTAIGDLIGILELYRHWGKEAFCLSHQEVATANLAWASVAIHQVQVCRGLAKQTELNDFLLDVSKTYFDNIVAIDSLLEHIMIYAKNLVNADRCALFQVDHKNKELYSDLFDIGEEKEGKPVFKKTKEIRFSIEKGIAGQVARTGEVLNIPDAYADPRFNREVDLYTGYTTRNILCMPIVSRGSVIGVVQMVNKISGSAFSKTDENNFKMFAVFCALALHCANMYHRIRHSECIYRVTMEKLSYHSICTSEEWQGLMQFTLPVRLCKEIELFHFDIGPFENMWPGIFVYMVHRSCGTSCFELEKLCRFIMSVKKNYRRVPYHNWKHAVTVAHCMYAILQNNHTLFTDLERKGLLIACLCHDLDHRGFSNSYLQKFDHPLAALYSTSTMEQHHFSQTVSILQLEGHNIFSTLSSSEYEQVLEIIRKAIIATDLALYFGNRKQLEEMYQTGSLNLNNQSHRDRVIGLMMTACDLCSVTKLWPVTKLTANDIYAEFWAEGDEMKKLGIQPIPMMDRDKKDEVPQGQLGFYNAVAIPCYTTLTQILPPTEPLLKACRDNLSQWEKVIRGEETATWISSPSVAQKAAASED

This test deals with human PDE10A2 (Homo sapiens (Human), UniProt Q9Y233). Briefly: PDE10 fluorescence polarization (IMAP FP) inhibition assay. Type of test: biochemical. Particulars: human PDE10A2 lysate, FAM-labeled cAMP 50 nM, room temperature; read-out: PDE10A Ki. The procedure:
The activity of the compounds in accordance with the present invention as PDE10 inhibitors may be readily determined without undue experimentation using a fluorescence polarization (FP) methodology that is well known in the art (Huang, W., et al., J. Biomol Screen, 2002, 7: 215). […] In a typical experiment the PDE10 inhibitory activity of the compounds of the present invention was determined in accordance with the following experimental method. PDE10A2 was amplified from human fetal brain cDNA (Clontech, Mountain View, Calif.) using a forward primer corresponding to nucleotides 56-77 of human PDE10A2 (Accession No. AF127480, Genbank Identifier 4894716), containing a Kozak consensus sequence, and a reverse primer corresponding to nucleotides 2406-2413 of human PDE10A2 (Accession No. AF127480, Genbank Identifier 4894716). Amplification with Easy-A polymerase (Stratagene, La Jolla, Calif.) was 95° C. for 2 minutes followed by thirty three cycles of 95° C. for 40 seconds, 55° C. for 30 seconds, and 72° C. for 2 minutes 48 seconds. Final extension was 72° C. for 7 minutes. The PCR product was TA cloned into pcDNA3.2-TOPO (Invitrogen, Carlsbad, Calif.) according to standard protocol. AD293 cells with 70-80% confluency were transiently transfected with human PDE10A2/pcDNA3.2-TOPO using Lipofectamine 2000 according to manufacturer specifications (Invitrogen, Carlsbad, Calif.). Cells were harvested 48 hours post-transfection and lysed by sonication (setting 3, 10×5 sec pulses) in a buffer containing 20 mM HEPES, 1 mM EDTA and protease inhibitor cocktail (Roche). Lysate was collected by centrifugation at 75,000×g for 20 minutes. Supernatant containing the cytoplasmic fraction was used for evaluation of PDE10A2 activity. The fluorescence polarization assay for cyclic nucleotide phosphodiesterases was performed using an IMAP® FP kit supplied by Molecular Devices, Sunnyvale, Calif. (product #R8139). IMAP® technology has been applied previously to phosphodiesterase assays (Huang, W., et al., J. Biomol Screen, 2002, 7: 215). Assays were performed at room temperature in 384-well microtiter plates with an incubation volume of 20.2 μL. Solutions of test compounds were prepared in DMSO and serially diluted with DMSO to yield 8 μL of each of 10 solutions differing by 3-fold in concentration, at 32 serial dilutions per plate. 100% inhibition is determined using a known PDE10 inhibitor, which can be any compound that is present at 5,000 times its Ki value in the assay described as follows, such as papaverine (see Siuciak, et al. Neuropharmacology (2006) 51:386-396; Becker, et al. Behav Brain Res (2008) 186(2):155-60; Threlfell, et al., J Pharmacol Exp Ther (2009) 328(3):785-795), 2-{4-[pyridin-4-yl-1-(2,2,2-trifluoroethyl)-1H-pyrazol-3-yl]phenoxymethyl}quinoline succinic acid or 2-[4-(1-methyl-4-pyridin-4-yl-1H-pyrazol-3-yl)-phenoxymethyl]quinoline succinic acid (see Schmidt, et al. J Pharmacol Exp Ther (2008) 325:681-690; Threlfell, et al., J Pharmacol Exp Ther (2009) 328(3): 785-795). 0% of inhibition is determined by using DMSO (1% final concentrations).
A Labcyte Echo 555 (Labcyte, Sunnyvale, Calif.) is used to dispense 200 nL from each well of the titration plate to the 384 well assay plate. A solution of enzyme (1/1600 dilution from aliquots; sufficient to produce 20% substrate conversion) and a separate solution of FAM-labeled cAMP PDE from Molecular Devices (product #R7506), at a final concentration of 50 nM are made in the assay buffer (10 mM Tris HCl, pH 7.2, 10 mM MgCl2, 0.05% NaN3 0.01% Tween-20, and 1 mM DTT). The enzyme and the substrate are then added to the assay plates in two consecutive additions of 10 μL, and then shaken to mix. The reaction is allowed to proceed at room temperature for 30 minutes. A binding solution is then made from the kit components, comprised of 80% Solution A, 20% Solution B and binding reagent at a volume of 1/600 the total binding solution.
For the compound “6-(((1S,2S)-2-(5- methoxypyridin-2- yl)cyclopropyl)methoxy)- 2-methyl-4-(((2-methyl- thiazol-4- yl)methyl)amino-)- pyridazin-3(2H)-one [Example 49]”, the pKi (as a rule, the Ki on a negative log10 scale, so that one unit is a factor of ten) is 7.78.
On to `Cc1ccc([C@H]2C[C@@H]2COc2cc(NCc3nnc(C)s3)c(=O)n(C)n2)nc1` [Example 1, 2-methyl-4-((5-methyl-1,3,4-thiadiazol-2-yl)methylamino)-6-(((1S,2S)-2-(5-methylpyridin-2-yl)cyclopropyl)methoxy)pyridazin-3(2H)-one], for which the pKi is 10.89.
As to `Cc1ncc(CNc2cc(OC[C@H]3C[C@@H]3c3ccn(C)n3)nn(C)c2=O)s1` [Example 2, 2-methyl-6-(((1S,2S)-2-(1-methyl-1H-pyrazol-3-yl)cyclopropyl)methoxy)-4-((2-methylthiazol-5-yl)methylamino)pyridazin-3(2H)-one], the pKi was 10.05.
As to `COc1ccc([C@H]2C[C@@H]2COc2cc(NCc3nnc(C)s3)c(=O)n(C)n2)nc1` [Example 4, 6-(((1S,2S)-2-(5-methoxy-pyridin-2-yl)cyclopropyl-)-methoxy)-2-methyl-4-((5-methyl-1,3,4-thiadiazol-2-yl)methylamino)pyridazin-3(2H)-one], the negative logarithm of the Ki (pKi) is 10.82.
With `Cc1nnc(CNc2cc(OC[C@H]3C[C@@H]3c3ccc(OC(F)F)cn3)nn(C)c2=O)s1` [Example 5, 6-(((1S,2S)-2-(5-(difluoromethoxy)pyridin-2-yl)cyclopropyl)methoxy-)-2-methyl-4-((5-methyl-1,3,4-thiadiazol-2-yl)-methylamino)pyridazin-3(2H)-one], the pKi is 9.80.
`Cc1nnc(CNc2cc(OC[C@H]3C[C@@H]3c3ccc(F)cn3)nn(C)c2=O)s1` [Example 7, 6-(((1S,2S)-2-(5-fluoropyridin-2-yl)cyclo-propyl)methoxy)-2-methyl-4-((5-methyl-1,3,4-thiadiazol-2-yl)methyl-amino)pyridazin-3(2H)one]: the pKi is 9.27.
Take `COc1ccc(CNc2cc(OC[C@H]3C[C@@H]3c3ccc(C)cn3)nn(C)c2=O)cc1` [Example 8, 4-(4-methoxybenzylamino)-2-methyl-6-(((1S,2S)-2-(5-methylpyridin-2-yl)cyclopropyl)methoxy)-pyridazin-3(2H)-one]: the pKi was 10.13.
Take `Cc1ccc(CNc2cc(OC[C@H]3C[C@@H]3c3ccc(C)cn3)nn(C)c2=O)nc1` [Example 9, 2-methyl-6-(((1S,2S)-2-(5-methylpyridin-2-yl)cyclopropyl)methoxy)-4-((5-methylpyridin-2-yl)methylamino)pyridazin-3(2H)-one]: the pKi is 10.29.
On to `Cc1ccc([C@H]2C[C@@H]2COc2cc(NCc3cnn(C)c3)c(=O)n(C)n2)nc1` [Example 10, 2-methyl-4-((1-methyl-1H-pyrazol-4-yl)methylamino)-6-(((1S,2S)-2-(5-methylpyridin-2-yl)cyclopropyl)methoxy)-pyridazin-3(2H)-one], for which the pKi was 10.14.
As for `Cc1ccc([C@H]2C[C@@H]2COc2cc(NCc3ccc(C)nc3)c(=O)n(C)n2)nc1` [Example 11, 2-methyl-6-(((1S,2S)-2-(5-methylpyridin-2-yl)cyclopropyl)methoxy)-4-((6-methylpyridin-3-yl)methylamino)pyridazin-3(2H)-one], the figure is 9.92; as for `Cc1ccc([C@H]2C[C@@H]2COc2cc(NCc3nc(C)cs3)c(=O)n(C)n2)nc1` [Example 12, 2-methyl-6-(((1S,2S)-2-(5-methylpyridin-2-yl)cyclo-propyl)methoxy)-4-((4-methylthiazol-2-yl)methyl-amino)pyridazin-3(2H)one], 8.00; as for `Cc1ccc([C@H]2C[C@@H]2COc2cc(NCc3cnc(C)s3)c(=O)n(C)n2)nc1` [Example 13, 2-methyl-6-(((1S,2S)-2-(5-methylpyridin-2-yl)cyclopropyl)methoxy)-4-((2-methylthiazol-5-yl)methylamino)pyridazin-3(2H)-one], 10.96.
In the case of `Cc1ccc([C@H]2C[C@@H]2COc2cc(NCc3cc(C)nn3C)c(=O)n(C)n2)nc1` [Example 14, 4-((1,3-dimethyl-1H-pyrazol-5-yl)methylamino-)-2-methyl-6-(((1S,2S)-2-(5-methylpyridin-2-yl)cyclopropyl)methoxy)-pyridazin-3(2H)-one], the pKi was 11.52.
Turning to `COc1ccc(CNc2cc(OC[C@H]3C[C@@H]3c3ccc(F)cn3)nn(C)c2=O)cc1` [Example 15, 6-(((1S,2S)-2-(5-fluoro-pyridin-2-yl)-cyclopropyl-)-methoxy)-4-(4-methoxy-benzylamino)-2-methyl-pyridazin-3(2H)-one], the pKi was 8.89.
As to `Cc1ccc(CNc2cc(OC[C@H]3C[C@@H]3c3ccc(F)cn3)nn(C)c2=O)nc1` [Example 16, 6-(((1S,2S)-2-(5-fluoropyridin-2-yl)cyclopropyl)methoxy)-2-methyl-4-((5-methylpyridin-2-yl)methylamino)pyridazin-3(2H)-one], the pKi is 9.11.
On to `COc1ccc(CNc2cc(OC[C@H]3C[C@@H]3c3ccn(C)n3)nn(C)c2=O)cc1` [Example 17, 4-(4-methoxybenzylamino)-2-methyl-6-(((1S,2S)-2-(1-methyl-1H-pyrazol-3-yl)cyclopropyl)methoxy)-pyridazin-3(2H)-one], for which the pKi is 9.30.
On to `Cc1cc(CNc2cc(OC[C@H]3C[C@@H]3c3ccc(F)cn3)nn(C)c2=O)n(C)n1` [Example 18], for which the pKi was 10.00.
Under `Cn1cc(CNc2cc(OC[C@H]3C[C@@H]3c3ccc(F)cn3)nn(C)c2=O)cn1` [Example 19, 6-(((1S,2S)-2-(5-fluoropyridin-2-yl)cyclo-propyl)methoxy)-2-methyl-4-((1-methyl-1H-pyrazol-4-yl)methylamino-)-pyridazin-3(2H)-one] stands 8.90.
For `Cc1ccc(CNc2cc(OC[C@H]3C[C@@H]3c3ccn(C)n3)nn(C)c2=O)cn1` [Example 20, 2-methyl-6-(((1S,2S)-2-(1-methyl-1H-pyrazol-3-yl)cyclopropyl)methoxy)-4-((6-methylpyridin-3-yl)methylamino)pyridazin-3(2H)-one], the pKi was 9.09.
`Cc1cc(CNc2cc(OC[C@H]3C[C@@H]3c3ccn(C)n3)nn(C)c2=O)n(C)n1` [Example 21, 4-((1,3-dimethyl-1H-pyrazol-5-yl)methylamino)-2-methyl-6-(((1S,2S)-2-(1-methyl-1H-pyrazol-3-yl)cyclopropyl)methoxy)-pyridazin-3(2H)-one]: the pKi is 10.36.
In the case of `Cc1ncc(CNc2cc(OC[C@H]3C[C@@H]3c3ccc(F)cn3)nn(C)c2=O)s1` [Example 22, 6-(((1S,2S)-2-(5-fluoropyridin-2-yl)cyclopropyl)methoxy)-2-methyl-4-((2-methylthiazol-5-yl)methylamino)pyridazin-3(2H)-one], the pKi was 9.76.
For `Cn1cc(CNc2cc(OC[C@H]3C[C@@H]3c3ccn(C)n3)nn(C)c2=O)cn1` [Example 23, 2-methyl-6-(((1S,2S)-2-(1-methyl-1H-pyrazol-3-yl)cyclopropyl)methoxy)-4-((1-methyl-1H-pyrazol-4-yl)methylamino)-pyridazin-3(2H)-one], the pKi is 9.32.
For the compound `Cc1nnc(CNc2cc(OC[C@H]3C[C@@H]3c3ccc(Cl)cn3)nn(C)c2=O)s1` [Example 25, 6-(((1S,2S)-2-(5-chloropyridin-2-yl)cyclopropyl)methoxy)-2-methyl-4-((5-methyl-1,3,4-thiadiazol-2-yl)methylamino)pyridazin-3(2H)-one], the pKi is 10.09.
